These results are taken from ChEMBL document CHEMBL3861984, “Synthesis and evaluation of 2,5 and 2,6 pyridine-based CXCR4 inhibitors” (Bioorg Med Chem, 2016).

pIC50: −log10 of the molar value. The source made the active and inactive calls. The rule behind the calls is not given here. A value given as a limit tells only on which side of the number the result lay.

The term inhibition denotes the drop in the measured response relative to a control, in per cent. The term inhibition in vivo denotes the share of the control response that was lost under treatment. Broadly, the pIC50 is the IC50 on a negative log10 scale, so that one unit is a factor of ten.

Series [1] concerns the target T1, C-X-C chemokine receptor type 4 (Homo sapiens, UniProt P61073). The series can be described thus: Displacement of biotinylated-TN14003 from CXCR4 in human MDA-MB-231 cells assessed as reduction in fluorescence preincubated for 10 mins followed by biotinylated-TN14003 addition measured after 30 mins by streptavidin-rhodamine staining based microscopic analysis. Format: cell-based.

Series [2] has as its system Mus musculus. The series can be described thus: Toxicity in carrageenan-induced paw edema C57BL/6J mouse model assessed as mortality at 10 mg/kg administered 30 mins after carrageenan challenge and then once daily following initial dose measured 74 hrs post inflammation induction and 2 hrs post last dose. Format: organism-based. Particulars: in vivo. (The carrageenan paw model is a standard test of acute inflammation.)

Series [3] has as its target T1, C-X-C chemokine receptor type 4. The series can be described thus: Inhibition of CXCR4/CXCL12 interaction-mediated chemotaxis in human MDA-MB-231 cells assessed as inhibition of cell invasion at 100 nM after 22 hrs by hematoxylin/eosin dye-based matrigel assay relative to control.
The test system of series [4] is Mus musculus. The series can be described thus: Anti-inflammatory activity in C57BL/6J mouse assessed as suppression of carrageenan-induced paw edema at 10 mg/kg administered 30 mins after carrageenan challenge and then once daily following initial dose measured 74 hrs post inflammation induction and 2 hrs post last dose relative to control. Format: functional.
The test system of series [5] is Mus musculus. The series can be described thus: Antiinflammatory activity in C57BL/6J mouse paw assessed as reduction in carrageenan-induced paw edema volume at 10 mg/kg administered 30 mins after carrageenan challenge and then once daily following initial dose measured 74 hrs post inflammation induction and 2 hrs post last dose by hematoxylin and eosin-staining based assay. Format: functional, organism-based.

T1 sequence (P61073 whole entry): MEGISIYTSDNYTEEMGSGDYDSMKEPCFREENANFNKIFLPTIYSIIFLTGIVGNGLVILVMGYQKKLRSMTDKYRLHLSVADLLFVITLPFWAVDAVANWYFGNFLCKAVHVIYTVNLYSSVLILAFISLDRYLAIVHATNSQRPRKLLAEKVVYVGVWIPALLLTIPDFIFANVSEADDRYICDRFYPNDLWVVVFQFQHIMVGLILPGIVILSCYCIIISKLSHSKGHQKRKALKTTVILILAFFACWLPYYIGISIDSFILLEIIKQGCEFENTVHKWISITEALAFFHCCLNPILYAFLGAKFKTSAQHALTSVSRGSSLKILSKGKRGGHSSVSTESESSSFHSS

Take `O=[N+]([O-])c1cccc(NCc2cccc(CNc3cccc([N+](=O)[O-])c3)n2)c1`: the EC in series [1] is over 1000 nM.

For the compound `Fc1ccccc1NCc1cccc(CNc2ccccc2F)n1`, the EC in series [1] is 1000 nM.

For `FC(F)(F)c1ccc(NCc2cccc(CNc3ccc(C(F)(F)F)cc3)n2)cc1`, the Activity result in series [2] is “Non-Toxic”. Also, in series [1], the EC turned out to be 1 nM. Besides, the inhibition in series [3] is 52%. Besides, the inhibition in vivo at 10 mg/kg in series [4] turned out to be 20.3%.

With `Clc1cccc(NCc2cccc(CNc3cccc(Cl)c3)n2)c1`, the EC in series [1] came out at 100 nM. For the same compound, the inhibition in series [3] is 34%.

As to `Fc1ccc(NCc2cccc(CNc3ccc(F)cc3)n2)cc1`, in series [1], the EC stood at 100 nM. In series [3], the inhibition was determined as 5%.

As for `FC(F)(F)c1ccccc1NCc1cccc(CNc2ccccc2C(F)(F)F)n1`, the EC in series [1] was over 1000 nM.

In the case of `Clc1ccccc1NCc1cccc(CNc2ccccc2Cl)n1`, in series [1], the EC was over 1000 nM.

Consider `Fc1ccc(CNc2ccc(NCc3ccc(F)cc3)nc2)cc1`, for which the EC in series [1] is over 1000 nM.

As to `Fc1cccc(NCc2cccc(CNc3cccc(F)c3)n2)c1`, the Activity entry in series [2] is “Non-Toxic”. For the same compound, the result in series [5] was Active. In series [1], the EC is 10 nM. In addition, the inhibition in series [3] came to 50%. In addition, the inhibition in vivo at 10 mg/kg in series [4] is 20.3%.

With `COc1cccc(NCc2cccc(CNc3cccc(OC)c3)n2)c1`, the Activity entry in series [2] is “Non-Toxic”. Moreover, the EC in series [1] was found to be 100 nM. Further, in series [3], the inhibition stood at 37%. The inhibition in vivo at 10 mg/kg in series [4] amounted to 20.1%.

Regarding `c1cc(CN2CCOCC2)nc(CN2CCOCC2)c1`, the Activity result in series [2] is given as “Non-Toxic”. In series [1], the EC was 10 nM and the pIC50 was 7.45. Also, the inhibition in series [3] stood at 63%. Besides, the inhibition in vivo at 10 mg/kg in series [4] was determined as 39.1%.

For `COc1ccccc1NCc1cccc(CNc2ccccc2OC)n1`, in series [1], the EC turned out to be 1000 nM. In addition, the inhibition in series [3] is 0%.

Regarding `c1ccc(NCc2cccc(CNc3ccccc3)n2)cc1`, the EC in series [1] came out at 100 nM. The inhibition in series [3] is under 1%.

For the compound `CCOc1ccc(CNc2ccc(NCc3ccc(OCC)cc3)nc2)cc1`, the Activity entry in series [2] is listed as “Non-Toxic”. The EC in series [1] amounted to 100 nM. For the same compound, the inhibition in series [3] amounted to 60%.

On to `Cc1cccc(NCc2ccc(CNc3cccc(C)c3)nc2)c1`, for which the Activity entry in series [2] is on record as “Non-Toxic”. For the same compound, the EC in series [1] was found to be 1 nM. Also, in series [3], the inhibition came to 58%.

Regarding `COc1ccc(CNc2ccc(NCc3ccc(OC)cc3)nc2)cc1`, the EC in series [1] was found to be 1000 nM.

As for `Cc1ccc(NCc2cccc(CNc3ccc(C)cc3)n2)cc1`, the EC in series [1] is 1000 nM.

For `Clc1ccc(NCc2cccc(CNc3ccc(Cl)cc3)n2)cc1`, the EC in series [1] came out at 100 nM. In series [3], the inhibition is 21%.

With `CCc1ccccc1NCc1cccc(CNc2ccccc2CC)n1`, the Activity result in series [2] is “Non-Toxic”. For the same compound, the EC in series [1] was found to be 1 nM. For the same compound, in series [3], the inhibition came to 59%. The inhibition in vivo at 10 mg/kg in series [4] amounted to 18.1%.

As for `Cc1cccc(NCc2cccc(CNc3cccc(C)c3)n2)c1`, the Activity entry in series [2] was “Non-Toxic”. Further, in series [1], the EC came to 100 nM. Besides, the inhibition in series [3] came to 60%. In addition, the inhibition in vivo at 10 mg/kg in series [4] stood at 20.2%.

As for `CCc1ccc(NCc2cccc(CNc3ccc(CC)cc3)n2)cc1`, in series [2], the Activity result is reported as “Non-Toxic”. In series [1], the EC stood at 1 nM and the pIC50 was 7.71. For the same compound, the inhibition in series [3] was determined as 64%. Further, the inhibition in vivo at 10 mg/kg in series [4] came to 42%.

With `O=[N+]([O-])c1ccc(NCc2cccc(CNc3ccc([N+](=O)[O-])cc3)n2)cc1`, the EC in series [1] is over 1000 nM.

As for `COc1ccc(NCc2cccc(CNc3ccc(OC)cc3)n2)cc1`, in series [1], the EC came out at 100 nM. In series [3], the inhibition was determined as 5%.

For `COc1ccccc1NCc1ccc(CNc2ccccc2OC)nc1`, the EC in series [1] amounted to 100 nM. Also, the inhibition in series [3] was under 5%.

With `Fc1cccc(NCc2ccc(CNc3cccc(F)c3)nc2)c1`, the EC in series [1] was 1000 nM.

Take `FC(F)(F)c1cccc(NCc2cccc(CNc3cccc(C(F)(F)F)c3)n2)c1`: the EC in series [1] was determined as 1000 nM. For the same compound, the inhibition in series [3] came to 15%.

For `Cc1ccccc1NCc1cccc(CNc2ccccc2C)n1`, in series [1], the EC is over 1000 nM.

For `CCc1cccc(NCc2cccc(CNc3cccc(CC)c3)n2)c1`, the EC in series [1] is 1000 nM.

On to `CSc1ccc(NCc2cccc(CNc3ccc(SC)cc3)n2)cc1`, for which the EC in series [1] was over 1000 nM.

On to `Clc1cccc(CNc2ccc(NCc3cccc(Cl)c3)nc2)c1`, for which, in series [1], the EC came out at 1000 nM.
